From ChEMBL document CHEMBL5241128, “Synthesis of 1-O-acyl- and 1-oxo-kamebanin analogues and their cytotoxic activity” (Bioorg Med Chem Lett, 2023) come the findings set out here.

For orientation: IC50 means the concentration that gives 50% inhibition.

Each structure is given as a SMILES string.

For experiment [1], the system named is HL-60. As to the kind of experiment: Cytotoxicity against human HL-60 cells assessed as inhibition of cell growth. The class given is functional, cell-based.
The test system of experiment [2] is HCT-116. As to the kind of experiment: Cytotoxicity against human HCT-116 cells assessed as inhibition of cell growth. Type of experiment: functional, cell-based.

On to `C=C1C(=O)[C@@]23[C@@H]4OC(C)(C)O[C@@H]2C[C@@H]2C(C)(C)CC[C@H](O)[C@@]2(C)[C@@H]3CC[C@@H]14`, for which the figures for the IC50 in experiment [1] and in experiment [2] were 7.3 µM and 7.6 µM, respectively.

For `C=C1C(=O)[C@@]23[C@H](O)C[C@@H]4C(C)(C)CC[C@H](OC(=O)CCC)[C@@]4(C)[C@@H]2CC[C@@H]1[C@H]3O`, the figures for the IC50 in experiment [1] and in experiment [2] were 6.1 µM and 4.2 µM, respectively.

As for `C=C1C(=O)[C@@]23[C@@H]4OC(C)(C)O[C@@H]2C[C@@H]2C(C)(C)CC[C@H](OC(C)=O)[C@@]2(C)[C@@H]3CC[C@@H]14`, the IC50 in experiment [1] came to 57 µM; in experiment [2], 43 µM.

On to `C=C1C(=O)[C@@]23[C@@H]4OC(C)(C)O[C@@H]2C[C@@H]2C(C)(C)CC[C@H](OC(=O)CC)[C@@]2(C)[C@@H]3CC[C@@H]14`, for which the IC50 in experiment [1] turned out to be 5.7 µM; in experiment [2], 6.9 µM.

`C=C1C(=O)[C@@]23[C@@H]4OC(C)(C)O[C@@H]2C[C@@H]2C(C)(C)CC[C@H](OC(=O)C(C)(C)C)[C@@]2(C)[C@@H]3CC[C@@H]14`: the IC50 came out at 14 µM in experiment [1] and 35 µM in experiment [2].

On to `C=C1C(=O)[C@@]23[C@H](O)C[C@@H]4C(C)(C)CC[C@H](OC(C)=O)[C@@]4(C)[C@@H]2CC[C@@H]1[C@H]3O`, for which the IC50 in experiment [1] amounted to 5.7 µM; in experiment [2], 13 µM.

Regarding `C=C1C(=O)[C@@]23[C@@H]4OC(C)(C)O[C@@H]2C[C@@H]2C(C)(C)CC[C@H](OC(=O)CCCC)[C@@]2(C)[C@@H]3CC[C@@H]14`, the IC50 amounted to 7.7 µM in experiment [1] and 10 µM in experiment [2].

For `C=C1C(=O)[C@@]23[C@@H]4OC(C)(C)O[C@@H]2C[C@@H]2C(C)(C)CC[C@H](OC(=O)CCC)[C@@]2(C)[C@@H]3CC[C@@H]14`, the IC50 in experiment [1] was found to be 7.2 µM; in experiment [2], 3.9 µM.

For the compound `C=C1C(=O)[C@@]23[C@H](O)C[C@@H]4C(C)(C)CC[C@H](OC(=O)CCCC)[C@@]4(C)[C@@H]2CC[C@@H]1[C@H]3O`, the IC50 was 2 µM in experiment [1] and 4.2 µM in experiment [2].

Regarding `C=C1C(=O)[C@@]23[C@@H]4OC(C)(C)O[C@@H]2C[C@@H]2C(C)(C)CCC(=O)[C@@]2(C)[C@@H]3CC[C@@H]14`, the IC50 in experiment [1] came to 36 µM; in experiment [2], 77 µM.

With `C=C1C(=O)[C@@]23[C@H](O)C[C@@H]4C(C)(C)CC[C@H](OC(=O)C(C)(C)C)[C@@]4(C)[C@@H]2CC[C@@H]1[C@H]3O`, the IC50 amounted to 2.8 µM in experiment [1] and 4.3 µM in experiment [2].

Regarding `C=C1C(=O)[C@@]23[C@H](O)C[C@@H]4C(C)(C)CC[C@H](OC(=O)CC)[C@@]4(C)[C@@H]2CC[C@@H]1[C@H]3O`, the IC50 in experiment [1] was 5.9 µM; in experiment [2] it was 9.7 µM.

With `C=C1C(=O)[C@@]23[C@H](O)C[C@@H]4C(C)(C)CC[C@H](OC(=O)CCCCC)[C@@]4(C)[C@@H]2CC[C@@H]1[C@H]3O`, the IC50 in experiment [1] came to 5.6 µM; in experiment [2], 4 µM.

Turning to `COc1cc([C@@H]2c3cc4c(cc3[C@@H](O[C@@H]3O[C@@H]5CO[C@@H](C)O[C@H]5[C@H](O)[C@H]3O)[C@H]3COC(=O)[C@H]23)OCO4)cc(OC)c1O` [ETOPOSIDE], the IC50 in experiment [1] is 12 µM; in experiment [2], 23 µM.

On to `C=C1C(=O)[C@@]23[C@H](O)C[C@@H]4C(C)(C)CCC(=O)[C@@]4(C)[C@@H]2CC[C@@H]1[C@H]3O`, for which the IC50 in experiment [1] is 2.2 µM; in experiment [2] it was 11 µM.

On to `C=C1C(=O)[C@@]23[C@H](O)C[C@@H]4C(C)(C)CC[C@H](O)[C@@]4(C)[C@@H]2CC[C@@H]1[C@H]3O` [KAMEBANIN], for which the values for the IC50 in experiment [1] and in experiment [2] were 3.3 µM and 12 µM, respectively.

`C=C1C(=O)[C@@]23[C@@H]4OC(C)(C)O[C@@H]2C[C@@H]2C(C)(C)CC[C@H](OC(=O)CCCCC)[C@@]2(C)[C@@H]3CC[C@@H]14`: the IC50 was 6.9 µM in experiment [1] and 6.8 µM in experiment [2].
